How the values were obtained:
[1] = Antiplatelet activity in human platelet rich plasma assessed as inhibition of ADP-induced platelet aggregation preincubated for 5 mins followed by ADP addition and measured after 20 mins by microplate reader analysis; type: functional, cell-based
P2Y purinoceptor 12 [2] = target: T1, P2Y purinoceptor 12 (Homo sapiens, UniProt Q9H244); test: Inhibition of 2-MeS-ADP induced P2Y12 (unknown origin) signalling expressed in CHO cells membrane incubated for 45 mins by 35S-GTPgammaS assay; type: functional, cell membranes
[3] = Antiplatelet activity in human platelet rich plasma assessed as inhibition of collagen-induced platelet aggregation at 3 uM preincubated for 2 mins followed by collagen addition by turbidimetric method relative to control; type: functional; design: scale not given: the % may be the effect or the level left
[4] = Antiplatelet activity in rabbit platelet rich plasma assessed as inhibition of ADP-induced platelet aggregation preincubated for 5 mins followed by ADP addition and measured after 5 mins by turbidimetric method; type: functional, cell-based; conditions: Oryctolagus cuniculus
[5] = Antiplatelet activity in human platelet rich plasma assessed as inhibition of ADP-induced platelet aggregation at 10 uM preincubated for 2 mins followed by ADP addition by turbidimetric method relative to control; type: functional; design: scale not given: the % may be the effect or the level left
[6] = Antiplatelet activity in human platelet rich plasma assessed as inhibition of thrombin-induced platelet aggregation at 3 uM preincubated for 2 mins followed by thrombin addition by turbidimetric method relative to control; type: functional; design: scale not given: the % may be the effect or the level left
[7] = Antiplatelet activity in human platelet rich plasma assessed as inhibition of ADP-induced platelet aggregation preincubated for 2 mins followed by ADP addition for 5 mins; type: functional, cell-based
[8] = Antiplatelet activity in human platelet rich plasma assessed as inhibition of ADP-induced platelet aggregation preincubated for 2 mins followed by ADP addition and measured after 6 mins by Born method; type: functional, cell-based
P2Y purinoceptor 12 [9] = target: T1, P2Y purinoceptor 12; test: Displacement of tritium-labeled 2MeSADP from human P2Y12 expressed in CHO cells measured after 2 hrs by scintillation counting method; type: cell-based
P2Y purinoceptor 12 [10] = target: T1, P2Y purinoceptor 12; test: Displacement of 2-MeS[3H]-ADP from P2Y12 (unknown origin) expressed in HEK293 cells preincubated for 5 mins followed by 2-MeS[3H]-ADP addition and measured after 30 mins by Topcount beta counter analysis; type: cell-based
[11] = Anti-platelet aggregation activity in rat platelets assessed as inhibition of ADP-induced aggregation pre-treated for 5 mins followed by ADP addition and measured after 5 mins; type: functional, cell-based
Rattus norvegicus = species: Rattus norvegicus; test: Anti-platelet aggregation activity in Sprague-Dawley rat assessed as reduction in bleeding time; type: functional
[12] = Anti-platelet aggregation activity in rat platelet rich plasma assessed as inhibition of ADP-induced aggregation at 250 ug/ml pre-treated for 5 mins followed by ADP addition by hemocytometer analysis; type: functional; design: scale not given: the % may be the effect or the level left; conditions: dose 250 µg/ml
P2Y purinoceptor 12 [13] = target: T1, P2Y purinoceptor 12; test: Binding affinity to P2Y12 (unknown origin)
[14] = Lipophilicity, logP of compound; type: physicochemical; conditions: octanol/water
[15] = Antiplatelet activity in rabbit platelet rich plasma assessed as inhibition of ADP-induced platelet aggregation at 150.8 uM preincubated for 3 mins followed by ADP addition and measured after 5 mins relative to control; type: functional, Oryctolagus cuniculus; design: scale not given: the % may be the effect or the level left; conditions: time 8 min
Homo sapiens = test: Antiplatelet activity in human assessed as inhibition of ADP-induced platelet aggregation at 100 mg, po after 4 hrs; type: functional; design: scale not given: the % may be the effect or the level left
[16] = Half life in human plasma; type: ADME, cell-free
P2Y purinoceptor 12 [17] = target: T1, P2Y purinoceptor 12; test: Displacement of [3H]2MeSADP from human P2Y12 preincubated for 5 mins followed by [3H]2MeSADP addition and measured after 15 mins by scintillation counting method
[18] = Antiplatelet activity in human platelet rich plasma assessed as inhibition of ADP-induced platelet aggregation; type: functional, cell-based
[19] = Anti-platelet aggregation activity in human platelets assessed as inhibition of epinephrine induced aggregation; type: functional, cell-based
P2Y purinoceptor 1 = P2Y purinoceptor 1 (Homo sapiens, UniProt P47900); test: Displacement of [3H]2MeSADP from human P2Y1 expressed in U2OS cell membranes incubated for 60 mins by scintillation counting method; design: species or system Membrane
Chain of P2Y purinoceptor 1 (P47900 whole entry): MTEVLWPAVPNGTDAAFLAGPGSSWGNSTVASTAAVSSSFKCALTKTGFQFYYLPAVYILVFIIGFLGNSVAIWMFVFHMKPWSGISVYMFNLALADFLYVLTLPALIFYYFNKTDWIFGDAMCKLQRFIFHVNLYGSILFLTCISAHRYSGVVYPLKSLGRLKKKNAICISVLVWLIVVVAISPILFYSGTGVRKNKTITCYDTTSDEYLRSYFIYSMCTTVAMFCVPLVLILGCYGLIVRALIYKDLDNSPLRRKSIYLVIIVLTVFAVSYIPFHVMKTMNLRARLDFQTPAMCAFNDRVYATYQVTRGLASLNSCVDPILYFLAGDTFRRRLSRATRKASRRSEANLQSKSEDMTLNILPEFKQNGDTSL

T1 sequence (Q9H244 whole entry): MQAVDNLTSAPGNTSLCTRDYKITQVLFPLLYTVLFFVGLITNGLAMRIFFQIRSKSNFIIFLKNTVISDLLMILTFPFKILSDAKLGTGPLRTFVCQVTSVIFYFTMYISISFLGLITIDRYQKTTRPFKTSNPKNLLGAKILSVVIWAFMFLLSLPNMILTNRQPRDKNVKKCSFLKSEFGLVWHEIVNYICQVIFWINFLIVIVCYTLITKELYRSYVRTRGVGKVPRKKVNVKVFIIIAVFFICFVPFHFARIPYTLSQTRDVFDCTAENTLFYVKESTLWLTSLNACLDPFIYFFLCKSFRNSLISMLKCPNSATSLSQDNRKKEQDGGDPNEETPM

CCNC(=O)[C@@H]1CCCN1C(=O)COc1cc(C(=O)N[C@@H](CCC(=O)O)C(=O)N2CCN(C(=O)OCC)CC2)nc2cccc(F)c12
IC50 [1]: 30 nM

CCCC(=O)c1cc(C#N)c(N(C(=O)C2CCNCC2)S(=O)(=O)CCc2ccccc2)nc1C
IC50 (P2Y purinoceptor 12 [2]): 260 nM

CC1CC(=O)NN=C1c1ccc(NC(=N)N)cc1 (centres undefined)
Activity [3]: 100% | IC50 [4]: 197 nM | Activity [5]: 95.09% | Activity [6]: 100%

CCCCOC(=O)N1CCN(C(=O)[C@H](CCP(=O)(O)O)NC(=O)c2cc(N3CC[C@H](OC)C3)nc(-c3ccccc3)n2)CC1
IC50 [7]: 1 nM

CCOC(=O)N1CCN(C(=O)[C@H](CCC(=O)O)NC(=O)c2cc(OCC(=O)N3CCC[C@H]3C(=O)NC3CCC3)n(-c3cccc(F)c3)n2)CC1
IC50 [8]: ≤ 11 nM

CCCCOC(=O)N1CCN(C(=O)[C@H](CP(=O)(O)O)NC(=O)c2nc(-c3ccccc3)sc2N2CCN(C)CC2)CC1
IC50 (P2Y purinoceptor 12 [9]): 1 nM

CCCCOC(=O)N1CCN(C(=O)[C@H](CCC(=O)O)NC(=O)c2cc(OCC(=O)N3CCC[C@H]3C(=O)N(C)C3CC3)n(-c3ccccc3)n2)CC1
IC50 [8]: ≤ 11 nM

CCOC(=O)N1CCN(C(=O)[C@H](Cc2ccc(P(=O)(O)O)cc2)NC(=O)c2csc(-c3ccccc3)n2)CC1
IC50 (P2Y purinoceptor 12 [9]): 1 nM

CCCSc1nc(N[C@@H]2C[C@H]2c2ccccc2)c2nnn([C@@H]3CC[C@H](O)[C@@H](O)[C@H]3O)c2n1
IC50 (P2Y purinoceptor 12 [10]): 1350 nM

CC(C)CCCC(C)[C@H]1CC[C@]2(C)[C@@H]1[C@H](O)C[C@@H]1[C@@]3(C)CC[C@H](O)C(C)(C)[C@@H]3[C@@H](O[C@@H]3O[C@H](CO)[C@@H](O)[C@H](O)[C@H]3O)C[C@]12C (some centres undefined)
IC50 [11]: 30900 nM

CCC(C)C(N)C(=O)Oc1cc2c(s1)CCN(C(C(=O)C1CC1)c1ccccc1F)C2.Cl (centres undefined)
ED50 (Rattus norvegicus): 0.74 mg/kg

CCCCOC(=O)N1CCN(C(=O)[C@H](CP(=O)(O)O)NC(=O)c2nc(-c3ccccc3)sc2N(C)CCCC)CC1
IC50 (P2Y purinoceptor 12 [9]): 1 nM

CCOC(=O)N1CCN(C(=O)[C@@H](CCC(=O)O)NC(=O)c2cc(Cl)cc(-c3ccccc3)n2)CC1
IC50 (P2Y purinoceptor 12 [9]): 34 nM

CCOC(=O)N1CCN(C(=O)[C@H](CCC(=O)O)NC(=O)c2cc(O[C@H](C)C(=O)N3CCC[C@H]3C(=O)NC3CCCC3)c3ccc(C)cc3n2)CC1
IC50 [1]: 30 nM

CC(=O)CCC1=C(C)C[C@@H](O[C@@H]2O[C@H](CO[C@@H]3OC[C@@H](O)[C@H](O)[C@H]3O)[C@@H](O)[C@H](O)[C@H]2O)CC1(C)C
Activity [12]: 89.59%

Cc1cnc(-c2cnc(N3CCN(C(=O)NS(=O)(=O)c4ccccc4)CC3)c(Cl)c2)o1
IC50 (P2Y purinoceptor 12 [13]): 320 nM

COC(=O)[C@H](c1ccccc1Cl)N1CCc2sccc2C1 [CLOPIDOGREL]
logP [14]: 3.74

COc1cc2c(cc1OC)-c1c(C)c3ccc(OC)c(OC)c3c[n+]1CC2 [DEHYDROCORYDALINE]
Activity [15]: 73.48%

CNc1cc2[nH]c(=O)n(-c3ccc(NC(=O)NS(=O)(=O)c4ccc(Cl)s4)cc3)c(=O)c2cc1F [ELINOGREL]
Activity (Homo sapiens): 60% | half-life [16]: 12 h | IC50 (P2Y purinoceptor 12 [17]): 50 nM | IC50 [18]: 10000 nM

C[C@@H]1CC[C@]2(C(=O)O)CC[C@]3(C)C(=CC[C@@H]4[C@@]5(C)CC[C@H](O)C(C)(C)[C@@H]5CC[C@]43C)[C@@H]2[C@]1(C)O [POMOLIC ACID]
IC50 [19]: 20 nM

CC(=O)Oc1cc2c(s1)CCN(C(C(=O)C1CC1)c1ccccc1F)C2 (centres undefined) [PRASUGREL]
logP [14]: 3.42

O=C(/C=C/c1ccc(O)c(O)c1/C=C/c1ccc(O)c(O)c1)O[C@H](Cc1ccc(O)c(O)c1)C(=O)O [SALVIANOLIC ACID A]
Ki (P2Y purinoceptor 1): 20300 nM

Clc1ccccc1CN1CCc2sccc2C1 [TICLOPIDINE]
logP [14]: 4.05
